# Test results: patent publication US10072304B2, “Nuclear localization of Src-family tyrosine kinases is required for growth factor-induced euchromatinization” (National University Corporation Chiba University, priority 2009, dated 2018)
# Tested on: COS-1 cells
# Assay: Quantitation of chromatin condensation levels (S.D. value of PI intensity per pixel) in COS-1 cells
# Format: cell-based, monkey
# Method: COS-1, HeLa cells (Japanese Collection of Research Bioresources, Osaka), MCF-7 (provided by H. Saya), A431 (provided by M. N. Fukuda), HEK293 (provided by […]), HCT116 (provided by T. Tomonaga), and SYF ([37]; provided by M. Okada and S. Nada) cells were cultured in Iscove's modified DME containing 5% fetal bovine serum (FBS). Cells were transiently transfected with 0.5 μg of plasmid vector using Trans IT Transfection reagent (Mirus) or with 1 μg of plasmid vector using linear polyethylenimine (25 kDa) (Polyscience, Inc.). For growth factor stimulation, COS-1 cells were starved under low serum conditions (0.05% FBS) for 24 h and restimulated with serum (5% FBS). For stimulation of endogenous SFKs, cells were treated with 3 mM Na3VO4 for 3 h, and SFK-mediated tyrosine phosphorylation was verified by treatment with 10 μM PP2 (SFK inhibitor; Calbiochem) or 100 nM wortmannin (PI3K inhibitor; Alomone Labs) for 21 h before Na3VO4 treatment. Na3VO4 was dissolved at 500 mM in 500 mM unbuffered HEPES before use. For preparation of stable transfectant clones, SYF cells transfected with c-Src-wt or Lyn-wt were selected in 333 μg/mL Zeocin (Invitrogen), and COS-1 cells were transfected with the BOSH2BGFP-N1 vector, which encodes GFP-tagged histone H2B ([39,40]; provided by H. Saya), were selected in 3 μg/mL blasticidin. Confocal and Nomarski differential-interference-contrast images were obtained using a Fluoview FV500 confocal laser scanning microscope with a 40×1.00 NA oil and a 100×1.35 NA oil immersion objective (Olympus, Tokyo) and an LSM 510 confocal laser scanning microscope with a 63×1.40 NA oil immersion objective (Zeiss), as described. One planar (xy) section slice (0.6-μm thickness) is shown in all experiments. In brief, cells were fixed with 4% paraformaldehyde for 20 min, and permeabilized in phosphate-buffered saline (PBS) containing 0.1% saponin and 3% bovine serum albumin at room temperature. Cells were subsequently reacted with an appropriate primary antibody for 1 h, washed with PBS containing 0.1% saponin, stained with FITC- or TRITC-conjugated secondary antibody for 1 h. […] To ensure no bleed-through from the fluorescein signal into the red channel, fluorescein and rhodamine were independently excited at 488 nm and 543 nm, respectively. PI was excited at 488 or 543 nm. Emission signals were detected between 505 and 525 nm for fluorescein, at more than 560 nm for rhodamine and more than 610 nm for PI [44]. Composite figures were prepared using Photoshop 5.0 and Illustrator 9.0 software (Adobe). For nuclear staining with anti-pTyr, anti-ATF-2 […]/71, and anti-histone H3K4me3 antibodies, cells were in situ extracted with 0.5% Triton X-100 at 4° C. for 3 min before fixation with 4% paraformaldehyde. For HP1α staining, cells were fixed in 100% methanol at -20° C. for 10 min followed by permeabilization for 30 min in PBS containing 0.1% Triton X-100 at room temperature. Cells were reacted with anti-HP1α antibody for 1 h at room temperature, washed with PBS four times, and stained with secondary antibody for 1 h. Fluorescence intensity plots of anti-histone H3K4me3, anti-ATF-2 […]/71 and anti-HP1α antibody and PI staining (see FIGS. 18B, 19B, and 20B, respectively) were generated using Fluoview version 4.3 software (Olympus, Tokyo). For detection of the kinase activity of nuclear SFKs, purified nuclei suspended in kinase buffer (50 mM HEPES-NaOH, pH7.4, 5 mM MgCl2, 5 mM MnCl2 and 0.1 mM Na3VO4) were preincubated with or without 10 μM PP2 at 30° C. for 30 min, and subsequently incubated with 5 or 10 μM ATP at 30° C. for 30 min, followed by cytocentrifugation at 200×g for 5 min and fixation with 4% paraformaldehyde. DNA was stained with 20 μg/mL PI and 200 μg/mL RNase A for 30 min. Mean fluorescence intensity of tyrosine-phosphorylated proteins in the nucleus was measured using the ImageJ software (National Institutes of Health). Confocal images of PI-stained nuclei were obtained as described above. […]
Compound,"hypo- and hypercondensed chromatin states (COS-1, 3 mM Na3VO4 for 3 h, FIGS. 23 and 26)","basal levels of chromatin condensation (COS-1, 10 μM PP2 or 100 nM wortmannin for 24 h, FIGS. 22 and 26)","chromatin hypo- and hypercondensation in Na3VO4-treated cells (COS-1, 10 μM PP2 pretreatment 21 h, then 3 mM Na3VO4 3 h, FIGS. 23 and 26)","serum-stimulated chromatin hypo- and hypercondensation (COS-1 starved 24 h (0.05% FBS), stimulated with 5% FBS in presence of 10 μM PP2, FIG. 16)","hyperosmotic stress-induced chromatin structural changes (cells not specified, hyperosmolar conditions, data not shown)"
"[Na+].[Na+].[Na+].[O]=[V]([O-])([O-])[O-] [Na3VO4, sodium orthovanadate]",induced drastic changes,–,–,–,–
CC(C)(C)n1nc(-c2ccc(Cl)cc2)c2c(N)ncnc21 [PP2],–,significantly reduce,decrease,significantly inhibited,did not inhibit
